Results from ChEMBL document CHEMBL3352346, “Optimization of sphingosine-1-phosphate-1 receptor agonists: effects of acidic, basic, and zwitterionic chemotypes on pharmacokinetic and pharmacodynamic profiles” (J Med Chem, 2014).
pEC50: −log10 of the molar value.

What was measured:
[1] = target: Sphingosine 1-phosphate receptor 1 (Homo sapiens, UniProt P21453); experiment: Agonist activity at human S1P1R expressed in RH7777 membranes assessed as [35S]GTPgammaS binding after 30 mins; assay type: functional, cell membranes
Chain of Sphingosine 1-phosphate receptor 1 (P21453 whole entry): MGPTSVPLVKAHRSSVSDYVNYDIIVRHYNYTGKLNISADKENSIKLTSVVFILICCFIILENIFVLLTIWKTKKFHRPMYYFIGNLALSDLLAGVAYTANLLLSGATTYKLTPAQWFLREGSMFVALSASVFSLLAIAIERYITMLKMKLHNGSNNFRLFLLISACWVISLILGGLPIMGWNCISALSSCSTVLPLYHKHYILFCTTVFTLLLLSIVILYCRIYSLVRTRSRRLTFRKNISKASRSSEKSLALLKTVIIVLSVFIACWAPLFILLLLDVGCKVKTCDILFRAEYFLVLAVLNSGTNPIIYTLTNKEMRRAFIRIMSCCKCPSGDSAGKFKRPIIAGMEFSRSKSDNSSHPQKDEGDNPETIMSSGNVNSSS

[2] = target: Sphingosine 1-phosphate receptor 3 (Homo sapiens, UniProt Q99500); experiment: Agonist activity at human S1P3R expressed in RBL membranes assessed as [35S]GTPgammaS binding after 30 mins; assay type: functional, cell membranes
Chain of Sphingosine 1-phosphate receptor 3 (Q99500 whole entry): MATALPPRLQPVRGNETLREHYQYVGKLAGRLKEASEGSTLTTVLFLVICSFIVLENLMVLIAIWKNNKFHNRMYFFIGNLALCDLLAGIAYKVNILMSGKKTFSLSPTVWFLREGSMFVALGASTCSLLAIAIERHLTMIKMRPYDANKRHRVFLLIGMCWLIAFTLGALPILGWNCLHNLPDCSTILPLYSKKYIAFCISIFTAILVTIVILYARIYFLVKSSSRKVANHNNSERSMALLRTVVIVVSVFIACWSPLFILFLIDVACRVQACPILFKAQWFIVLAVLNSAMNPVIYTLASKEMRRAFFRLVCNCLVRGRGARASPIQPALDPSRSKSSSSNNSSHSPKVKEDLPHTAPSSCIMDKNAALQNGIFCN

[3] = system: Rattus norvegicus; experiment: Reduction of lymphocyte count in rat at 3 mg/kg, po measured at 12 hrs relative to control; assay type: functional
[4] = Oral bioavailability in CD rat at 3 mg/kg using Methylcellulose(aq), 1% (w/v) suspension; assay type: ADME, organism-based; settings: CD, in vivo
[5] = Clearance in CD rat at 1 mg/kg, iv or 3 mg/kg, po using DMSO/10%(w/v) Kleptose, 0.9% saline(aq) (2%/98%); assay type: ADME, organism-based; settings: in vivo
[6] = system: Rattus norvegicus; experiment: Reduction of lymphocyte count in rat at 3 mg/kg, po measured at 24 hrs relative to control; assay type: functional
[7] = system: Rattus norvegicus; experiment: Reduction of lymphocyte count in rat at 3 mg/kg, po measured at 8 hrs relative to control; assay type: functional
[8] = Half life in CD rat at 1 mg/kg, iv or 3 mg/kg, po using DMSO/10%(w/v) Kleptose, 0.9% saline(aq) (2%/98%); assay type: ADME, organism-based; settings: in vivo
[9] = Volume of distribution at steady state in CD rat at 1 mg/kg, iv or 3 mg/kg, po using DMSO/10%(w/v) Kleptose, 0.9% saline(aq) (2%/98%); assay type: ADME, organism-based; settings: in vivo, read-out: Vdss
[10] = Chromatographic hydrophobicity index, log D of the compound at pH 10.5; assay type: physicochemical; settings: buffer
[11] = Chromatographic hydrophobicity index, log D of the compound at pH 2; assay type: physicochemical; settings: buffer
[12] = system: Rattus norvegicus; experiment: Reduction of lymphocyte count in rat at 3 mg/kg, po measured at 4 hrs relative to control; assay type: functional
[13] = Chromatographic hydrophobicity index, log D of the compound at pH 7.4; assay type: physicochemical; settings: buffer
[14] = target: Albumin (Homo sapiens, UniProt P02768); experiment: Fraction unbound as a percentage in human serum albumin; assay type: ADME
Chain of Albumin (P02768 whole entry): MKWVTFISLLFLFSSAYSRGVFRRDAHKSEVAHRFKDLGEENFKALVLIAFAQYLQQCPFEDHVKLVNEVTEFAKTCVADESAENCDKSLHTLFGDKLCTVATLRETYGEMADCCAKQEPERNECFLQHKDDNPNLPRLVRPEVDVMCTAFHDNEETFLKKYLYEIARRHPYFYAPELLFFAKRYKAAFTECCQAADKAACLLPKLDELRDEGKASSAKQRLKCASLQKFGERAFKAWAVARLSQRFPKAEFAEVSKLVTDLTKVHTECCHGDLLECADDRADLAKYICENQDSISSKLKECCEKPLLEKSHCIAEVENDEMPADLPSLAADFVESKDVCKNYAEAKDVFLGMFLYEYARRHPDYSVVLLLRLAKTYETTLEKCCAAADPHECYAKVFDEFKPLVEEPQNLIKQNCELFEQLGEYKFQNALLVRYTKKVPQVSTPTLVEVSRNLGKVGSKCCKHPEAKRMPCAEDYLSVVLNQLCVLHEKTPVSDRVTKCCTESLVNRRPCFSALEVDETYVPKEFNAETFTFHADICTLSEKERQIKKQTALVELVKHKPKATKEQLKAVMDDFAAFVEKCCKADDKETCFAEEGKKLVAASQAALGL

pEC50 [1] | pEC50 [2] | Structure (SMILES) | other results
8.60 | 6.60 | CC(C)Oc1ccc(-c2nc(-c3ccc4c(c3)CNC(CCC(=O)O)CO4)no2)cc1Cl (stereo unspecified) | 
7.70 | 5.30 | CC(C)Oc1ccc(-c2nc(-c3cccc4c3CCNC4CC(=O)O)no2)cc1Cl (stereo unspecified) | Activity [3]: 58; bioavailability [4]: 10%; clearance [5]: 5 mL/min/kg; Activity [6]: 99; Activity [7]: 12; half-life [8]: 6.7 h; Vd [9]: 2.7 L/kg; chromatographic logD [10]: 1.73; chromatographic logD [11]: 1.47; Activity [12]: 24; chromatographic logD [13]: 2.02
8.10 | < 4.50 | CC(C)Oc1ccc(-c2nc(-c3cccc4c3CNC4)no2)cc1Cl | 
6.90 | 4.80 | CC(C)Oc1ccc(-c2nc(-c3ccc4c(c3)CNCCO4)no2)cc1Cl | 
7.50 | < 4.50 | CC(C)Oc1ccc(-c2nc(-c3ccc4c(cnn4CCC(=O)O)c3)no2)cc1Cl | fraction unbound [14]: 0.013
7.10 | < 4.50 | CC(C)Oc1ccc(-c2nc(-c3cccc4c3OCCNC4)no2)cc1Cl | 
8.10 | 5.00 | CC(C)Oc1ccc(-c2nc(-c3ccc4c(c3)CCN(CCC(=O)O)CC4)no2)cc1Cl | 
5.60 | < 4.50 | CC(C)Oc1ccc(-c2nc(-c3cccc4c3CCN(CC(=O)O)CC4)no2)cc1Cl | 
7.40 | 4.80 | CC(C)Oc1ccc(-c2nc(-c3cccc4c3CCNC4)no2)cc1Cl | 
6.60 | 5.80 | O=C(O)c1cnn(Cc2ccc(-c3noc(-c4cc(-c5ccccc5)c(C(F)(F)F)s4)n3)cc2)c1 | fraction unbound [14]: 0.01
8.40 | 5.70 | CC(C)Oc1ccc(-c2nc(-c3ccc4c(c3)CCN(CC(=O)O)CC4)no2)cc1C#N | 
6.30 | 5.70 | CC(C)Oc1ccc(-c2nc(-c3cccc4c3CN(CCCC(=O)O)C4)no2)cc1Cl | 
6.20 | < 4.50 | CC(C)Oc1ccc(-c2nc(-c3cccc4c3CCCNC4)no2)cc1Cl | 
8.70 | 5.10 | CC(C)Oc1ccc(-c2nc(-c3cccc4c3CCNCC4)no2)cc1C#N | 
8.30 | 4.90 | CC(C)Oc1ccc(-c2nc(-c3cccc4c3CCNC4CC(=O)O)no2)cc1C#N (stereo unspecified) | Activity [3]: 108; Activity [6]: 132; Activity [7]: 69; chromatographic logD [10]: 1.27; chromatographic logD [11]: 1.17; Activity [12]: 46; chromatographic logD [13]: 1.58
8.10 | < 4.50 | CC(C)Oc1ccc(-c2nc(-c3cccc4c3CCN(CC(=O)O)C4)no2)cc1C#N | 
7.30 | < 4.50 | CC(C)Oc1ccc(-c2nc(-c3ccc4c(c3)CN(CCC(=O)O)CCO4)no2)cc1C#N | 

pEC50 [1] | pEC50 [2] | Structure (SMILES) | other results
7.60 | 5.20 | CC(C)Oc1ccc(-c2nc(-c3ccc4c(c3)CNCCO4)no2)cc1C#N | 
8.00 | 4.60 | CC(C)Oc1ccc(-c2nc(-c3cccc4c3OCCNC4CCCC(=O)O)no2)cc1Cl (stereo unspecified) | 
7.80 | < 4.50 | CC(C)Oc1ccc(-c2nc(-c3cccc4c3CCNCC4)no2)cc1Cl | 
6.90 | < 4.50 | CC(C)Oc1ccc(-c2nc(-c3ccc4c(c3)CCCNC4)no2)cc1C#N | 
6.40 | < 4.50 | CC(C)Oc1ccc(-c2nc(-c3ccc4c(c3)CCCNC4)no2)cc1Cl | 
6.90 | 5.70 | CC(C)Oc1ccc(-c2nc(-c3ccc4c(c3)CN(CCC(=O)O)CCO4)no2)cc1Cl | 
6.50 | < 4.50 | CC(C)Oc1ccc(-c2nc(-c3ccc4c(c3)OCCNC4)no2)cc1Cl | 
7.20 | 4.60 | CC(C)Oc1ccc(-c2nc(-c3ccc4c(c3)CN(CCCC(=O)O)CCO4)no2)cc1C#N | 
6.50 | 5.10 | CC(C)Oc1ccc(-c2nc(-c3cccc4c3CN(CCC(=O)O)C4)no2)cc1Cl | 
8.20 | 5.40 | CC(C)Oc1ccc(-c2nc(-c3ccc4c(c3)CCN(CCC(=O)O)C4)no2)cc1C#N | 
8.30 | 6.10 | CC(C)Oc1ccc(-c2nc(-c3ccc4c(c3)CNC(C(=O)O)CO4)no2)cc1Cl (stereo unspecified) | 
7.10 | < 4.50 | CC(C)Oc1ccc(-c2nc(-c3ccc4c(c3)OCCNC4)no2)cc1C#N | 
6.40 | < 4.50 | CC(C)Oc1ccc(-c2nc(-c3cccc4c3CN(CCCC(=O)O)C4)no2)cc1C#N | 
6.80 | < 4.50 | CC(C)Oc1ccc(-c2nc(-c3cccc4c3CCN(CCC(=O)O)CC4)no2)cc1Cl | 
8.30 | < 4.50 | CC(C)Oc1ccc(-c2nc(-c3cccc4c3OCCNC4CCC(=O)O)no2)cc1Cl (stereo unspecified) | 
8.40 | 4.50 | CC(C)Oc1ccc(-c2nc(-c3ccc4c(c3)CCNC4)no2)cc1C#N | 
